What was measured:
Format in all cases: cell-based
[1] = target: T1, SMARCA2 (Homo sapiens, UniProt P51531); assay: MSD SMARCA2 degradation in A549 cell line; conditions: for Dmax: A549, A549 cells; for Dmax / DC50: 24 h; for DC50 / SMARCA2 MSD A549 degradation 24 h: Average Dmax %: A549 cells; for DC50: read-out: SMARCA2 MSD A549 degradation 24 h: Average external-Abs DC50
How it was run: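 SMARCA2 protein remaining after 24 h exposure of A549 cells (top concentration 1000 nM, 3-fold dilutions) was measured by MSD electrochemiluminescence immunoassay of cell lysates. Results are given as binned DC50 and maximal degradation (Dmax) codes.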

[2] = target: T2, SMARCA4 (Homo sapiens, UniProt P51532); assay: SMARCA4 Western blot degradation in MV4-11 cells; conditions: for Dmax: MV4-11, MV4-11 cells, read-out: SMARCA4 MSD MV411 degradation 24 h: average Dmax %; for Dmax / DC50: 24 h; for DC50 / SMARCA4 MSD MV411 degradation 24 h: average Dmax %: MV4-11 cells; for DC50: read-out: SMARCA4 MSD MV411 degradation 24 h: Mean external-Abs DC50
T2 construct: SMARCA2/SMARCA4 protein degradation selectivity in MV4-11 cells; endogenous in cells; host or cells: MV4-11
How it was run: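 Protein levels quantified by LI-COR Western blot (beta-actin loading control) in RIPA lysates of MV4-11 cells after 24 h compound exposure. Degradation reported as DC50, Dmax % at 24 h and SMARCA2 vs SMARCA4 selectivity, each binned into letter codes.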

[3] = target: T1, SMARCA2; assay: SMARCA2 Western blot degradation in MV4-11 cells; design: SMARCA2/SMARCA4 protein degradation selectivity in MV4-11 cells; endogenous in cells; host or cells: MV4-11; conditions: for Dmax: MV4-11, MV4-11 cells, read-out: SMARCA2 MSD MV411 degradation 24 h: average Dmax %; for Dmax / DC50 / SMARCA2 MSD MV411 degradation 24 h: average Dmax %: 24 h; for DC50 / Selectivity in MV411 / SMARCA2 MSD MV411 degradation 24 h: average Dmax %: MV4-11 cells; for DC50: read-out: SMARCA2 MSD MV411 degradation 24 h: Mean external-Abs DC50; for Selectivity in MV411: SMARCA2/4 selectivity

T1 sequence (P51531 whole entry): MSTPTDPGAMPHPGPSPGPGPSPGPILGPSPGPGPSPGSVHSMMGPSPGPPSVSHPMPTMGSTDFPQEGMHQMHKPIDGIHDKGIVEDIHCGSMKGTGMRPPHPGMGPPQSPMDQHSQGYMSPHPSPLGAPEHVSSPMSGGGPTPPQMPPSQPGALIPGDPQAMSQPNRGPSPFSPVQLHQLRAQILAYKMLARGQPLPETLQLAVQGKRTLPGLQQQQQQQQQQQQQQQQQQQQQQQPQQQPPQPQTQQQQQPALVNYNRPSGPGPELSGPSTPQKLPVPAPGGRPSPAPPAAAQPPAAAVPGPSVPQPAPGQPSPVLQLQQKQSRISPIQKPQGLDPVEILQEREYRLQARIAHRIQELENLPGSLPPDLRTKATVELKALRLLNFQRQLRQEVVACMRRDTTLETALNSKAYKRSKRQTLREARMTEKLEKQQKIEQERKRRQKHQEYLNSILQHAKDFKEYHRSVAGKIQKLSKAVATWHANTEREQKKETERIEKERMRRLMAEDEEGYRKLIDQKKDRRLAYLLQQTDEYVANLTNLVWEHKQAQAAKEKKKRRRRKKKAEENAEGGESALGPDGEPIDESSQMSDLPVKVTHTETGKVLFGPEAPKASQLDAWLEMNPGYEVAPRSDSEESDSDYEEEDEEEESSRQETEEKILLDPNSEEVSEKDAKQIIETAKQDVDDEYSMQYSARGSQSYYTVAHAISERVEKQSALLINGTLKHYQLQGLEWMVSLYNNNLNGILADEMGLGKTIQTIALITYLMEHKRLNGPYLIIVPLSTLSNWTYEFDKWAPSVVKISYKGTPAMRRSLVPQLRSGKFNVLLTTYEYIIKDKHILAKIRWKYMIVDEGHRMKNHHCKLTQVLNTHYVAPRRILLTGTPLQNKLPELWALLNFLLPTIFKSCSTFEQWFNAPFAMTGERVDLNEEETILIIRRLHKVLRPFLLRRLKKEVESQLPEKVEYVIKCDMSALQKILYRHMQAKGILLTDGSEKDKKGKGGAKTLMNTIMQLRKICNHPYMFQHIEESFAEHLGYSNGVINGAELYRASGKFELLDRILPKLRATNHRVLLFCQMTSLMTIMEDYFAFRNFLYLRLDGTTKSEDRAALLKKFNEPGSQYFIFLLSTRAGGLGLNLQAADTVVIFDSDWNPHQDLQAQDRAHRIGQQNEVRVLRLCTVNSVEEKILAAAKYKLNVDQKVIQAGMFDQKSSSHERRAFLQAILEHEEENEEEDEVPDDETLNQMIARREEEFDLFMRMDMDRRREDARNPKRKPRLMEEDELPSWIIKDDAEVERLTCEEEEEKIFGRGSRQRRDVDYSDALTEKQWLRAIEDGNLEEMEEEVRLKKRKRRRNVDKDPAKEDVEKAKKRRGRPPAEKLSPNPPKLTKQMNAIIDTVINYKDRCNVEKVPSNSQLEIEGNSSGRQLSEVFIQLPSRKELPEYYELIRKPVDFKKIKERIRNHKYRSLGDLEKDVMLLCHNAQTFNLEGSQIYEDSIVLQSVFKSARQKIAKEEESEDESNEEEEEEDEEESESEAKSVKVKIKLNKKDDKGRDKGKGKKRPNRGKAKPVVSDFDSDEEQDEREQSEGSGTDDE
T2 sequence (P51532 whole entry): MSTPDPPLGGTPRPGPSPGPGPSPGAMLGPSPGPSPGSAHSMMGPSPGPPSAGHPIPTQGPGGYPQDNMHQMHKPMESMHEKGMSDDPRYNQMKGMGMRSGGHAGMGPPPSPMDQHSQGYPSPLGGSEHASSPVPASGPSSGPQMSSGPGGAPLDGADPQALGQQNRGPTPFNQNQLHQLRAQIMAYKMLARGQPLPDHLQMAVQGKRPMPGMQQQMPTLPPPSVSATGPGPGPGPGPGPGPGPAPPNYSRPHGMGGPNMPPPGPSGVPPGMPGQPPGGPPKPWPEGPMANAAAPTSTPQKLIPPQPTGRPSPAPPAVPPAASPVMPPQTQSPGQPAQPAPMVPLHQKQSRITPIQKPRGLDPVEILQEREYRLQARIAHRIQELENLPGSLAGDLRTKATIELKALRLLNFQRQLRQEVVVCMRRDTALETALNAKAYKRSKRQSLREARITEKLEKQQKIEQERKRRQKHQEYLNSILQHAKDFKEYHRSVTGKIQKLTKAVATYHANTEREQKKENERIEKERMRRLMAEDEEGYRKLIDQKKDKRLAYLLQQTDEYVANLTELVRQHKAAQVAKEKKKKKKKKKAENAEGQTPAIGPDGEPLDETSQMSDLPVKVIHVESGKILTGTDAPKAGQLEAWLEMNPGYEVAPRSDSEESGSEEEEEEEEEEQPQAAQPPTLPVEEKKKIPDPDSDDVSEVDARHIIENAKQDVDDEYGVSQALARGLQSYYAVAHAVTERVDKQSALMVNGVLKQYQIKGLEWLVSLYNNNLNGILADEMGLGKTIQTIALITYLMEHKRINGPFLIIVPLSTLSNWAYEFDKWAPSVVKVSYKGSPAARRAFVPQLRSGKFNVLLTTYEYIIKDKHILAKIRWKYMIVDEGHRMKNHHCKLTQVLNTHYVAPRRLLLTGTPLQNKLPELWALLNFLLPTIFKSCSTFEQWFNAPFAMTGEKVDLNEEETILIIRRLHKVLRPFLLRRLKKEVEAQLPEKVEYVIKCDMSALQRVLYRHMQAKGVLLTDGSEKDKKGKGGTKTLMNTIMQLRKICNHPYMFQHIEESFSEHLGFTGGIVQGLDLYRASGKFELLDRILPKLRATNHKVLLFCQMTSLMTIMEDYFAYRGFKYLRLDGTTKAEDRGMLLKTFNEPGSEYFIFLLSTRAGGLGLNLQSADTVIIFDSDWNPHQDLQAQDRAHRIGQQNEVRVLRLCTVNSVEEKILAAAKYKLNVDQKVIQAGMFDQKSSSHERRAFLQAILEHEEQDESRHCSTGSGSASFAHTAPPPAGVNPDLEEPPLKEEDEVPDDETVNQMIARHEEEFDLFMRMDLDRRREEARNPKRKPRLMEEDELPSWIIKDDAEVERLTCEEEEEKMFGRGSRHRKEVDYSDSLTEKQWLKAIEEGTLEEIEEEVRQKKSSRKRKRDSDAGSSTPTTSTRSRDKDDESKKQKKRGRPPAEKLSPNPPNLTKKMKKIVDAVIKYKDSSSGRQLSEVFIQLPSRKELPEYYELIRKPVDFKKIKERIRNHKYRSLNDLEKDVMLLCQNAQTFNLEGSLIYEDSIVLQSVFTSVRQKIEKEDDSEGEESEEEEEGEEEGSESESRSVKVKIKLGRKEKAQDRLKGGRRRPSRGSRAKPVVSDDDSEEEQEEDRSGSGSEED

| SMILES | Dmax [1] [%] | DC50 [1] [nM] | Dmax [2] [%] | DC50 [2] [nM] | Dmax [3] [%] | DC50 [3] [nM] | Selectivity in MV411 [3] | SMARCA2 MSD A549 degradation 24 h: Average Dmax % [1] | SMARCA4 MSD MV411 degradation 24 h: average Dmax % [2] | SMARCA2 MSD MV411 degradation 24 h: average Dmax % [3] |
| --- | --- | --- | --- | --- | --- | --- | --- | --- | --- | --- |
| C#Cc1ccc(CNC(=O)[C@@H]2C[C@@H](O)CN2C(=O)[C@@H](NC(=O)CCCN2CCC(N3CC4(CC(N5CCN6c7cc(-c8ccccc8O)nnc7NC[C@H]6C5)C4)C3)CC2)C(C)(C)C)cc1 (single isomer, unassigned) [I-244] | > 90 | > 100 | 50 to 70 | > 100 | > 90 | 10 to 100 | C (C (10-100 fold)) | – | – | – |
| C#Cc1ccc(CNC(=O)[C@@H]2C[C@@H](O)CN2C(=O)[C@@H](NC(=O)CN2CC3(CC(N4CCC(N5CCC(N6CCN7c8cc(-c9ccccc9O)nnc8NC[C@H]7C6)CC5)CC4)C3)C2)C(C)(C)C)cc1 [I-214, (2S,4R)—N-(4-ethynylbenzyl)-4-hydroxy-1-((S)-2-(2-(6-(4-((S)-2-(2-hydroxyphenyl)-6a,7,9,10-tetrahydro-5H-pyrazino[1′,2′:4,5]pyrazino[2,3-c]pyridazin-8(6H)-yl)-[1,4′-bipiperidin]-1′-yl)-2-azaspiro[3.3]heptan-2-yl)acetamido)-3,3-dimethylbutanoyl)pyrrolidine-2-carboxamide] | > 90 | > 100 | < 50 | > 100 | 70 to 90 | 10 to 100 | B (B (>100-500 fold)) | – | – | – |
| Cc1ncsc1-c1ccc(CNC(=O)[C@@H]2C[C@@H](O)CN2C(=O)[C@@H](NC(=O)[C@H]2CC3(C2)C[C@H](N2CCN(c4cnc(N5CCc6[nH]c7nnc(-c8ccccc8O)cc7c6[C@H]5C)nc4)CC2)C3)C(C)(C)C)cc1 (single isomer, unassigned) [I-77] | – | 10 to 50 | – | > 100 | – | 1 to 10 | C (C (10-100 fold)) | A (A (>90% degradation)) | D (D (<50% degradation)) | B (B (>70-90% degradation)) |
| C#Cc1ccc(CNC(=O)[C@@H]2C[C@@H](O)CN2C(=O)[C@@H](NC(=O)[C@H]2CCC3(CC2)C[C@H](N2CCN(c4cnc(N5CCN6c7cc(-c8ccccc8O)nnc7NC[C@H]6C5)nc4)CC2)C3)C(C)(C)C)cc1 (single isomer, unassigned) [I-122] | > 90 | 10 to 50 | 50 to 70 | 10 to 100 | 70 to 90 | 1 to 10 | C (C (10-100 fold)) | – | – | – |
| C#Cc1ccc(CNC(=O)[C@@H]2C[C@@H](O)CN2C(=O)[C@@H](NC(=O)[C@H]2CCC3(CC2)C[C@H](N2CCC(N4CCC(N5CCN6c7cc(-c8ccccc8O)nnc7NC[C@H]6C5)CC4)CC2)C3)C(C)(C)C)c(Cl)c1 (stereo partly shown) [I-222] | – | > 100 | – | > 100 | – | 10 to 100 | B (B (>100-500 fold)) | A (A (>90% degradation)) | D (D (<50% degradation)) | B (B (>70-90% degradation)) |

The next lines start with the values.

| Dmax [1] [%] | DC50 [1] [nM] | Dmax [2] [%] | DC50 [2] [nM] | Dmax [3] [%] | DC50 [3] [nM] | Selectivity in MV411 [3] | SMARCA2 MSD A549 degradation 24 h: Average Dmax % [1] | SMARCA4 MSD MV411 degradation 24 h: average Dmax % [2] | SMARCA2 MSD MV411 degradation 24 h: average Dmax % [3] | SMILES |
| --- | --- | --- | --- | --- | --- | --- | --- | --- | --- | --- |
| > 90 | < 10 | 70 to 90 | > 100 | > 90 | 1 to 10 | C (C (10-100 fold)) | – | – | – | C#Cc1ccc([C@H](C)NC(=O)[C@@H]2C[C@@H](O)CN2C(=O)[C@@H](NC(=O)N2CC3(CC(N4CCN(c5cnc(N6CCc7[nH]c8nnc(-c9ccccc9O)cc8c7[C@H]6C)nc5)CC4)C3)C2)C(C)(C)CCO)cc1 [I-369] |
| > 90 | 10 to 50 | 70 to 90 | > 100 | 70 to 90 | 1 to 10 | C (C (10-100 fold)) | – | – | – | C#Cc1ccc(CNC(=O)[C@@H]2C[C@@H](O)CN2C(=O)[C@@H](NC(=O)N2CC3(CC(N4CCC(c5cnc(N6CCc7[nH]c8nnc(-c9ccccc9O)cc8c7[C@H]6CO)nc5)CC4)C3)C2)C(C)(C)C)c(Cl)c1 [I-318] |

Source: US20250170248A1, “SMARCA DEGRADERS AND USES THEREOF” (Kymera Therapeutics, Inc., priority 2021, published 2025)
